Reference: article PMC11912224, “A general approach for activity-based protein profiling of oxidoreductases with redox-differentiated diarylhalonium warheads” (Chemical Science, 2025)

Key:
[1] = target: T1, EUOX (eugenol oxidase) (Rhodococcus jostii, UniProt Q0SBK1); assay: activity-based labelling, in-gel fluorescence; type: binding; details: covalent; 30 uM probe, 1 h
T1 construct: gene RHA1_ro03282; recombinant; FAD enzyme; details not in main text
T1 sequence (Q0SBK1 1-526): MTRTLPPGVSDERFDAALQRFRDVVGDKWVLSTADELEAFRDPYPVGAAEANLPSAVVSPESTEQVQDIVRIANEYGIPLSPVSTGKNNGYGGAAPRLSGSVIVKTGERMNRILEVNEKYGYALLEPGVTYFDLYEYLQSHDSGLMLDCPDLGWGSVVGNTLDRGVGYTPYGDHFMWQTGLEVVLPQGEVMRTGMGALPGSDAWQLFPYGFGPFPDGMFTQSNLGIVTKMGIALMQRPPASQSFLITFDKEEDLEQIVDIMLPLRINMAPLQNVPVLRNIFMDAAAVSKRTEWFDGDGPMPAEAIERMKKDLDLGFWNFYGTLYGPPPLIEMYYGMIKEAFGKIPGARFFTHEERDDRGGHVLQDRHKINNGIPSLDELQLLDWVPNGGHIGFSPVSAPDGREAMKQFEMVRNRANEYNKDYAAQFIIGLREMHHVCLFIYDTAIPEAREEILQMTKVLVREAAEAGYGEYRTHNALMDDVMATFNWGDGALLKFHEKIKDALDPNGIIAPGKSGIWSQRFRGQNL

[2] = target: T2, ALDH2 (aldehyde dehydrogenase 2, recombinant human) (Homo sapiens, UniProt P05091); assay: activity-based labelling, in-gel fluorescence; type: binding; details: covalent; 30 uM probe, 1 h
T2 construct: recombinant
T2 sequence (P05091 18-517): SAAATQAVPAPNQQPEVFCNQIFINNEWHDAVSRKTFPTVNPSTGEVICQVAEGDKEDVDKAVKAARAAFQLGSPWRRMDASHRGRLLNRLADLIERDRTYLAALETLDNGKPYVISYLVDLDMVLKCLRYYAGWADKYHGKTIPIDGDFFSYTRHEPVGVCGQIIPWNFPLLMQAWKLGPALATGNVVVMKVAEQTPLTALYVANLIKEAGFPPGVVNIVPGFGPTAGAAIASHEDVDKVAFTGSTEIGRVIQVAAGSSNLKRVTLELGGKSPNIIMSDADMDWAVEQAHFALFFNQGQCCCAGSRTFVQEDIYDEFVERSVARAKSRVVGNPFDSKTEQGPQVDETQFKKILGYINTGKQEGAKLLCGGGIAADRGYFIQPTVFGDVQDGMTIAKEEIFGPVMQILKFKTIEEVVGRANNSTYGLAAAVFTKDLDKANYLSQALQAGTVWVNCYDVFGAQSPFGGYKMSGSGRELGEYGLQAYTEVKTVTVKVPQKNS

[N-]=[N+]=NCCCCCCCCCCNC(=O)c1ccc([I+]c2ccccc2)cc1 [3aa, diphenyliodonium probe 3aa]
activity-based labelling, in-gel fluorescence [1]: led to the labeling of several of the tested oxidoreductases | activity-based labelling, in-gel fluorescence [2]: led to the labeling of several of the tested oxidoreductases
